Experimental data as given in ChEMBL document CHEMBL1131292, “Synthesis and pharmacology of a new AMPA-kainate receptor agonist with potent convulsant activity” (J Med Chem, 1998).

Key:
[1] = tested on: Mus musculus; assay: In Vivo evaluation of the Compound administered through icv for tonicity in presence along with […] in mice.; type: functional
[2] = tested on: Mus musculus; assay: In Vivo evaluation of the Compound administered through icv for tonicity in presence alone in mice.; type: functional
[3] = tested on: Mus musculus; assay: In Vivo evaluation of the Compound administered through icv for tonicity in presence along with the antagonist GYKI 52466 in mice.; type: functional
[4] = tested on: Mus musculus; assay: In Vivo evaluation of the Compound administered through icv for the Clonic seizure presence along with […] in mice.; type: functional
[5] = tested on: Mus musculus; assay: In Vivo evaluation of the Compound administered through icv for the Clonic seizure presence along with the antagonist GYKI 52466 in mice.; type: functional
[6] = tested on: Mus musculus; assay: In Vivo evaluation of the Compound administered through icv for the Clonic seizure presence alone in mice.; type: functional
[7] = tested on: Mus musculus; assay: In Vivo evaluation of the Compound administered through icv for the Clonic seizure presence of the compound along with the antagonist NBQX in mice.; type: functional
[8] = tested on: Mus musculus; assay: In Vivo evaluation of the Compound administered through icv for tonicity in presence of the compound along with the antagonist NBQX in mice.; type: functional
[9] = target: Glutamate NMDA receptor; assay: Compound was evaluated for binding affinity at N-methyl-D-aspartate glutamate receptor using [3H]CPP as radioligand; type: protein-complex assay
[10] = tested on: Mus musculus; assay: In Vivo evaluation of the Compound administered through icv for tonicity in presence alone in mice; type: functional
[11] = tested on: Mus musculus; assay: In Vivo evaluation of the Compound administered through icv for the for tonicity in presence along with the antagonist GYKI 52466 in mice; type: functional
[12] = tested on: Mus musculus; assay: In Vivo evaluation of the Compound administered through icv for the for tonicity in presence along with […] in mice; type: functional
[13] = tested on: Mus musculus; assay: In Vivo evaluation of the Compound administered through icv for the Clonic seizure presence of the compound along with the antagonist NBQX in mice; type: functional
[14] = tested on: Mus musculus; assay: In Vivo evaluation of the Compound administered through icv for the for tonicity in presence of the compound along with the antagonist NBQX in mice; type: functional
[15] = target: Glutamate receptor ionotropic, kainate; assay: Compound was evaluated for binding affinity at Ionotropic glutamate receptor kainate using [3H]- KAIN as radioligand; type: protein-complex assay
[16] = tested on: Mus musculus; assay: In Vivo evaluation of the Compound administered through icv for the Clonic seizure presence along with […] in mice. (+/-95% confidence limits within parenthesis); nM per mouse; type: functional
[17] = Potency ratio (the ratio between the CD50 value of the drug in the presence of antagonist versus its CD50 value) for compound in presence of GYKI 52466; range 1.4-2.1; type: functional
[18] = Potency ratio (the ratio between the CD50 value of the drug in the presence of antagonist versus its CD50 value) for compound in presence of CPP; range 2.9-3.4; type: functional
[19] = Potency ratio (the ratio between the CD50 value of the drug in the presence of antagonist versus its CD50 value) for compound in presence of CPP compound in presence of NBQX; range 1.1-1.3; type: functional
[20] = tested on: Mus musculus; assay: In Vivo evaluation of the Compound administered through icv for the tonicity in presence alone in mice.; type: functional
[21] = target: Glutamate receptor ionotropic, AMPA (Rattus norvegicus, UniProt P19490+P19491+P19492+P19493)
Description: Compound was evaluated for binding affinity at Ionotropic glutamate receptor AMPA using [3H]AMPA as radioligand

[22] = tested on: Mus musculus; assay: In Vivo evaluation of the Compound administered through icv for the tonicity in presence along with the antagonist GYKI 52466 in mice.; type: functional
[23] = tested on: Mus musculus; assay: In Vivo evaluation of the Compound administered through icv for tonicity in presence along with the antagonist NBQX in mice.; type: functional
[24] = tested on: Mus musculus; assay: In Vivo evaluation of the Compound administered through icv for the Clonic seizure presence along with the antagonist NBQX in mice.; type: functional
[25] = tested on: Mus musculus; assay: In Vivo evaluation of the Compound administered through icv for the Clonic seizure presence along with the antagonist GYKI 52466 in mice; type: functional

| Structure (SMILES) | CD50 [1] | CD50 [4] | CD50 [5] | CD50 [6] | IC50 [9] | IC50 [15] | IC50 [21] | further results |
| --- | --- | --- | --- | --- | --- | --- | --- | --- |
| C=C(C)[C@H]1CN[C@H](C(=O)O)[C@H]1CC(=O)O [KAINIC ACID] | 0.071 nmol/mouse | 0.024 nmol/mouse | 0.071 nmol/mouse | 0.015 nmol/mouse | > 100 µM |  |  | CD50 [2]: 0.032 nmol/mouse; CD50 [3]: 0.232 nmol/mouse; CD50 [7]: 0.094 nmol; CD50 [8]: 0.468 nmol/mouse |
| Cc1onc(O)c1C[C@H](N)C(=O)O [(S)-AMPA] |  | 2.69 nmol/mouse | 7.61 nmol/mouse | 1.76 nmol/mouse |  |  |  | CD50 [10]: 2.9 nmol; CD50 [11]: 16.1 nmol; CD50 [12]: 3.18 nM; CD50 [13]: 6.7 nmol/mouse; CD50 [14]: 15.7 nmol |
| O=C(O)C1=NO[C@H]2[C@@H]1CN[C@@H]2C(=O)O |  |  | 17.5 nmol/mouse | 8.48 nmol/mouse | 23 µM | 48 µM | 24.7 µM | CD50 [16]: 24.82 nM; Ratio [17]: 1.4; Ratio [18]: 2.9; Ratio [19]: 1.1; CD50 [20]: 39.9 nM |
| O=C(O)C1=NO[C@H]2CN[C@H](C(=O)O)[C@@H]12 | 0.19 nmol | 0.039 nmol/mouse |  | 0.027 nmol/mouse | > 100 µM | 0.48 µM | 1.3 µM | CD50 [22]: 1.26 nM; CD50 [23]: 0.99 nM; CD50 [24]: 0.43 nM; CD50 [25]: 0.5 nM |
